Source: patent US7385026B1, “Modified ghrelin polypeptides” (priority 1999, dated 2008)
Where “and” joins values, the source holds several entries; their conditions need not be identical. Equal entries are not always repeated. Where two headings read alike, the source gives them in different places. Square brackets hold non-standard residues; d marks the D form. Peptide text beside a SMILES is read from it. * marks the point of attachment. d2Nal = N[C@H](Cc1ccc2ccccc2c1)C(=O)O; Octanoyl = CCCCCCCC(=O)*; Aib = CC(C)(N)C(=O)O; Octyl = CCCCCCCC*

Columns and labels:
rat GHS-receptor (GHR-R) = molecular target: T1, rat GHS-receptor (GHR-R) (Rattus norvegicus, UniProt O08725); assay: Ca-releasing activity (increase in intracellular calcium) in CHO-GHSR62 cells, FLIPR; format: cell-based
T1 construct: A full-length cDNA for rat GHR-R was obtained by RT-PCR; expressed in transfected cells
T1 sequence (O08725 whole entry): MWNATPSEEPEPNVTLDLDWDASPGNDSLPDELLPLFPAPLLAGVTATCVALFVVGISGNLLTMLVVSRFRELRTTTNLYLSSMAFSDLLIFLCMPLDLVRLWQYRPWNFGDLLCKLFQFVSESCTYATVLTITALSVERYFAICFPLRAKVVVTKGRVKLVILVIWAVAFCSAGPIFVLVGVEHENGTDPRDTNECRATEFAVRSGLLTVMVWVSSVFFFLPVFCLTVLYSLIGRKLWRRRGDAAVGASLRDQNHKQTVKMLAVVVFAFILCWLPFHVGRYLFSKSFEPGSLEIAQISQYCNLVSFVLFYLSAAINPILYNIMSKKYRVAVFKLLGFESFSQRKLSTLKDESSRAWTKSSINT
Procedure, shortened: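 CHO cells stably expressing full-length rat GHS-R (CHO-GHSR62) were cultured 12–15 h, loaded with 4 μM Fluo4 for 1 h and washed with Hank's BSS containing 20 mM Hepes and 2.5 mM probenecid. Ca-releasing activity of ghrelin peptides, fragments or derivatives was read by FLIPR as the fluorescence change after sample addition.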

IGS-SD strain rats = assay: GH-releasing activity of long-chain ghrelin derivatives in rat (plasma GH 15 min after i.v.); format: in vivo; conditions: for GH level in plasma in 15 min. after administration, M ± S.D.: n=3; for GH level in plasma in 15 min. after administration, individual rats (Rat 1-3): rats under Nembutal; for GH-releasing activity (in words): i.v., plasma GH at 15 minutes
Description: Fifteen minutes after administration, plasma was collected, and the concentration of GH in plasma was measured by radioimmunoassay (Biotrak/Amersham). Separately, 0.2% bovine serum albumin (BSA)-physiological saline, 6 nmol/kg rGhrelin and hGhrelin, or 80 nmol/kg Ipamorelin (Compound 80) was administered into other rats as the control, respectively, and the concentrations of GH in plasma in 15 minutes after administration were compared (for each sample, n=3).

[1] = test system: amino-terminal antibody (anti-[C-Cys]-rat ghrelin [1-11] antigen); assay: Radioimmunoassay: inhibition of binding of labeled rat ghrelin to amino-terminal antibody; set-up: species or system rabbit
[2] = CHO-GHSR62 cells (CHO cells expressing rat GHS receptor), FLIPR, read-out: Ca-releasing activity EC50

CCCCCCCCOC[C@H](NC(=O)[C@H](CO)NC(=O)CN)C(=O)N[C@@H](Cc1ccccc1)C(=O)N[C@@H](CC(C)C)C(=O)N[C@@H](CO)C(=O)N1CCC[C@H]1C(=O)N[C@@H](CCC(=O)O)C(=O)N[C@@H](Cc1c[nH]cn1)C(=O)N[C@@H](CCC(N)=O)C(=O)N[C@@H](CCCNC(=N)N)C(=O)N[C@H](C(=O)N[C@@H](CCC(N)=O)C(=O)N[C@@H](CCC(N)=O)C(=O)N[C@@H](CCCNC(=N)N)C(=O)N[C@@H](CCCCN)C(=O)N[C@@H](CCC(=O)O)C(=O)N[C@@H](CO)C(=O)N[C@@H](CCCCN)C(=O)N[C@@H](CCCCN)C(=O)N1CCC[C@H]1C(=O)N1CCC[C@H]1C(=O)N[C@@H](C)C(=O)N[C@@H](CCCCN)C(=O)N[C@@H](CC(C)C)C(=O)N[C@@H](CCC(N)=O)C(=O)N1CCC[C@H]1C(=O)N[C@@H](CCCNC(=N)N)C(=O)O)C(C)C [Compound 17, [Ser^3(Octyl)]-hGhrelin]
EC50 (rat GHS-receptor (GHR-R); [2]): 1.2 nM | GH level in plasma in 15 min. after administration, M ± S.D. (IGS-SD strain rats; dose 18 nmol/kg i.v.): 1657 ± 75 ng/mL | GH level in plasma in 15 min. after administration, individual rats (Rat 1-3) (IGS-SD strain rats; dose 18 nmol/kg i.v.): 1626 ng/mL and 1602 ng/mL and 1743 ng/mL | GH-releasing activity (in words) (IGS-SD strain rats): strong GH-releasing activity

CC(C)C[C@H](NC(=O)[C@H](CCCCN)NC(=O)[C@H](C)NC(=O)[C@@H]1CCCN1C(=O)[C@@H]1CCCN1C(=O)[C@H](CCCCN)NC(=O)[C@H](CCCCN)NC(=O)[C@H](CO)NC(=O)[C@H](CCC(=O)O)NC(=O)[C@H](CCCCN)NC(=O)[C@H](CCCNC(=N)N)NC(=O)[C@H](CCC(N)=O)NC(=O)[C@H](CCC(N)=O)NC(=O)[C@@H](NC(=O)[C@H](CCCNC(=N)N)NC(=O)[C@H](CCC(N)=O)NC(=O)[C@H](Cc1c[nH]cn1)NC(=O)[C@H](CCC(=O)O)NC(=O)[C@@H]1CCCN1C(=O)[C@H](CO)NC(=O)[C@H](CC(C)C)NC(=O)[C@H](Cc1ccccc1)NC(=O)[C@H](COC(=O)CCc1ccccc1)NC(=O)[C@H](CO)NC(=O)CN)C(C)C)C(=O)N[C@@H](CCC(N)=O)C(=O)N1CCC[C@H]1C(=O)N[C@@H](CCCNC(=N)N)C(=O)O [Compound 15, [Ser^3(3-Phenylpropionyl)]-hGhrelin]
EC50 (rat GHS-receptor (GHR-R); [2]): 1.4 nM | GH level in plasma in 15 min. after administration, M ± S.D. (IGS-SD strain rats; dose 18 nmol/kg i.v.): 1926 ± 299 ng/mL | GH level in plasma in 15 min. after administration, individual rats (Rat 1-3) (IGS-SD strain rats; dose 18 nmol/kg i.v., listed as [Ser^3(Phenylpropionyl)]-hGhrelin): 2119 ng/mL and 2078 ng/mL and 1581 ng/mL | GH-releasing activity (in words) (IGS-SD strain rats): strong GH-releasing activity

CCCCCC(=O)OC[C@H](NC(=O)[C@H](CO)NC(=O)CN)C(=O)N[C@@H](Cc1ccccc1)C(=O)N[C@@H](CC(C)C)C(=O)N[C@@H](CO)C(=O)N1CCC[C@H]1C(=O)N[C@@H](CCC(=O)O)C(=O)N[C@@H](Cc1c[nH]cn1)C(=O)N[C@@H](CCC(N)=O)C(=O)N[C@@H](CCCCN)C(=O)N[C@@H](C)C(=O)N[C@@H](CCC(N)=O)C(=O)N[C@@H](CCC(N)=O)C(=O)N[C@@H](CCCNC(=N)N)C(=O)N[C@@H](CCCCN)C(=O)N[C@@H](CCC(=O)O)C(=O)N[C@@H](CO)C(=O)N[C@@H](CCCCN)C(=O)N[C@@H](CCCCN)C(=O)N1CCC[C@H]1C(=O)N1CCC[C@H]1C(=O)N[C@@H](C)C(=O)N[C@@H](CCCCN)C(=O)N[C@@H](CC(C)C)C(=O)N[C@@H](CCC(N)=O)C(=O)N1CCC[C@H]1C(=O)N[C@@H](CCCNC(=N)N)C(=O)O [Compound 11, [Ser^3(Hexanoyl)]-rGhrelin]
EC50 (rat GHS-receptor (GHR-R); [2]): 16 nM | cross-reactivity with the amino-terminal antibody [1]: 0.3%

CC(C)(N)C(=O)N[C@@H](Cc1c[nH]cn1)C(=O)N[C@H](Cc1ccc2ccccc2c1)C(=O)N[C@H](Cc1ccccc1)C(=O)N[C@@H](CCCCN)C(N)=O [Compound 80, [Aib^1, His^2, ^DNal^3, ^DPhe^4, Lys^5]-Ghrelin (1-5)-amide, reference compound] (H-[Aib]H[d2Nal][dF]K-NH2)
EC50 (rat GHS-receptor (GHR-R); [2]): 2.5 nM | GH level in plasma in 15 min. after administration, M ± S.D. (IGS-SD strain rats; dose 80 nmol/kg i.v.): 607 ± 503 ng/mL | GH level in plasma in 15 min. after administration, individual rats (Rat 1-3) (IGS-SD strain rats; dose 80 nmol/kg i.v., listed as Ipamorelin): 377 ng/mL and 260 ng/mL and 1184 ng/mL

CCCCCCCCCC(=O)OC[C@H](NC(=O)[C@H](CO)NC(=O)CN)C(=O)N[C@@H](Cc1ccccc1)C(=O)N[C@@H](CC(C)C)C(=O)N[C@@H](CO)C(=O)N1CCC[C@H]1C(=O)N[C@@H](CCC(=O)O)C(=O)N[C@@H](Cc1c[nH]cn1)C(=O)N[C@@H](CCC(N)=O)C(=O)N[C@@H](CCCCN)C(=O)N[C@@H](C)C(=O)N[C@@H](CCC(N)=O)C(=O)N[C@@H](CCC(N)=O)C(=O)N[C@@H](CCCNC(=N)N)C(=O)N[C@@H](CCCCN)C(=O)N[C@@H](CCC(=O)O)C(=O)N[C@@H](CO)C(=O)N[C@@H](CCCCN)C(=O)N[C@@H](CCCCN)C(=O)N1CCC[C@H]1C(=O)N1CCC[C@H]1C(=O)N[C@@H](C)C(=O)N[C@@H](CCCCN)C(=O)N[C@@H](CC(C)C)C(=O)N[C@@H](CCC(N)=O)C(=O)N1CCC[C@H]1C(=O)N[C@@H](CCCNC(=N)N)C(=O)O [Compound 12, [Ser^3(Decanoyl)]-rGhrelin]
EC50 (rat GHS-receptor (GHR-R); [2]): 1.7 nM | EC50 (rat GHS-receptor (GHR-R); Table 3, Example 9: protease fragments or synthetic peptides, CHO-GHSR62 cells, read-out: Ca-releasing activity (EC50)): 2.6 nM | cross-reactivity with the amino-terminal antibody [1]: 20%

CC(C)C[C@H](NC(=O)[C@H](CCCCN)NC(=O)[C@H](C)NC(=O)[C@@H]1CCCN1C(=O)[C@@H]1CCCN1C(=O)[C@H](CCCCN)NC(=O)[C@H](CCCCN)NC(=O)[C@H](CO)NC(=O)[C@H](CCC(=O)O)NC(=O)[C@H](CCCCN)NC(=O)[C@H](CCCNC(=N)N)NC(=O)[C@H](CCC(N)=O)NC(=O)[C@H](CCC(N)=O)NC(=O)[C@@H](NC(=O)[C@H](CCCNC(=N)N)NC(=O)[C@H](CCC(N)=O)NC(=O)[C@H](Cc1c[nH]cn1)NC(=O)[C@H](CCC(=O)O)NC(=O)[C@@H]1CCCN1C(=O)[C@H](CO)NC(=O)[C@H](CC(C)C)NC(=O)[C@H](Cc1ccccc1)NC(=O)[C@H](Cc1ccc2ccccc2c1)NC(=O)[C@H](CO)NC(=O)CN)C(C)C)C(=O)N[C@@H](CCC(N)=O)C(=O)N1CCC[C@H]1C(=O)N[C@@H](CCCNC(=N)N)C(=O)O [Compound 65, [2-^LNal^3]-hGhrelin]
EC50 (rat GHS-receptor (GHR-R); [2]): 8.2 nM | GH level in plasma in 15 min. after administration, M ± S.D. (IGS-SD strain rats; dose 100 nmol/kg i.v.): 1524 ± 147 ng/mL | GH level in plasma in 15 min. after administration, individual rats (Rat 1-3) (IGS-SD strain rats; dose 100 nmol/kg i.v.): 1637 ng/mL and 1576 ng/mL and 1357 ng/mL

CCCCCCCCSC[C@H](NC(=O)[C@H](CO)NC(=O)CN)C(=O)N[C@@H](Cc1ccccc1)C(=O)N[C@@H](CC(C)C)C(=O)N[C@@H](CO)C(=O)N1CCC[C@H]1C(N)=O [Compound 48, [Cys^3(Octyl)]-Ghrelin (1-7)-amide] (H-GSC(Octyl)FLSP-NH2)
EC50 (rat GHS-receptor (GHR-R); [2]): 7.4 nM

CCCCCCCC(=O)NC[C@H](NC(=O)[C@H](CO)NC(=O)CN)C(=O)N[C@@H](Cc1ccccc1)C(=O)N[C@@H](CC(C)C)C(=O)N[C@@H](CO)C(=O)N1CCC[C@H]1C(=O)N[C@@H](CCC(=O)O)C(=O)N[C@@H](Cc1cnc[nH]1)C(=O)N[C@@H](CCC(N)=O)C(=O)N[C@@H](CCCNC(=N)N)C(=O)N[C@H](C(=O)N[C@@H](CCC(N)=O)C(=O)N[C@@H](CCC(N)=O)C(=O)N[C@@H](CCCNC(=N)N)C(=O)N[C@@H](CCCCN)C(=O)N[C@@H](CCC(=O)O)C(=O)N[C@@H](CO)C(=O)N[C@@H](CCCCN)C(=O)N[C@@H](CCCCN)C(=O)N1CCC[C@H]1C(=O)N1CCC[C@H]1C(=O)N[C@@H](C)C(=O)N[C@@H](CCCCN)C(=O)N[C@@H](CC(C)C)C(=O)N[C@@H](CCC(N)=O)C(=O)N1CCC[C@H]1C(=O)N[C@@H](CCCNC(=N)N)C(=O)O)C(C)C [Compound 56, [Dap^3(Octanoyl)]-hGhrelin]
EC50 (rat GHS-receptor (GHR-R); [2]): 2.6 nM

CCCCCCCCOC[C@H](NC(=O)CCCCN)C(=O)N[C@@H](Cc1ccccc1)C(=O)N[C@@H](CC(C)C)C(N)=O [Compound 81, [N-Aminopentanoyl, Ser^3(Octyl)]-Ghrelin (3-5)-amide]
EC50 (rat GHS-receptor (GHR-R); [2]): 11 nM

CCCCCCCC(=O)OC[C@H](NC(=O)[C@H](CO)NC(=O)CN)C(=O)N[C@@H](Cc1ccccc1)C(=O)N[C@@H](CC(C)C)C(=O)N[C@@H](CO)C(=O)N1CCC[C@H]1C(=O)N[C@@H](CCC(=O)O)C(=O)N[C@@H](Cc1c[nH]cn1)C(N)=O [Compound 3, Ghrelin (1-9)-amide] (H-GSS(Octanoyl)FLSPEH-NH2)
Ca-releasing activity of ghrelin (1-9) after amidation relative to before amidation (rat GHS-receptor (GHR-R)): about 7 times | EC50 (rat GHS-receptor (GHR-R); [2]): 5.4 nM

CCCCCCCOC(=O)C[C@H](NC(=O)[C@H](CO)NC(=O)CN)C(=O)N[C@@H](Cc1ccccc1)C(=O)N[C@@H](CC(C)C)C(=O)N[C@@H](CO)C(=O)N1CCC[C@H]1C(=O)N[C@@H](CCC(=O)O)C(=O)N[C@@H](Cc1c[nH]cn1)C(=O)N[C@@H](CCC(N)=O)C(=O)N[C@@H](CCCNC(=N)N)C(=O)N[C@H](C(=O)N[C@@H](CCC(N)=O)C(=O)N[C@@H](CCC(N)=O)C(=O)N[C@@H](CCCNC(=N)N)C(=O)N[C@@H](CCCCN)C(=O)N[C@@H](CCC(=O)O)C(=O)N[C@@H](CO)C(=O)N[C@@H](CCCCN)C(=O)N[C@@H](CCCCN)C(=O)N1CCC[C@H]1C(=O)N1CCC[C@H]1C(=O)N[C@@H](C)C(=O)N[C@@H](CCCCN)C(=O)N[C@@H](CC(C)C)C(=O)N[C@@H](CCC(N)=O)C(=O)N1CCC[C@H]1C(=O)N[C@@H](CCCNC(=N)N)C(=O)O)C(C)C [Compound 54, [Asp^3(O-Heptyl)]-hGhrelin]
EC50 (rat GHS-receptor (GHR-R); [2]): 5.1 nM
